Values of other authors in patent US20110061649A1, “DEVICE AND METHOD FOR TREATING RESPIRATORY AND OTHER DISEASES” (priority 2007, published 2011).
“Also recorded” adds a separate entry of the source. Where two headings read alike, the source gives them in different places.

Legend:
[1] = for storage without losing effectiveness / beneficial properties: Weizmann Institute article
[2] = tested on: cysteine proteinases
[3] = tested on: alcohol dehydrogenases
[4] = tested on: methicillin-resistant staphylococcus aureus; conditions: allicin formulated into creams and soap
[5] = tested on: vancomycin-resistant enterococci; conditions: allicin formulated into creams and soap
[6] = tested on: mammals cells

life span ([1]; temperature not stated) | preserved stable ([1]; temperature of 4° Celsius) | level of allicin to which mammals cells proved to be immune [6] | Structure (SMILES) | life span ([1]; room temperature) | storage without losing effectiveness / beneficial properties ([1]; listed as natural compound) | blocking of cysteine proteinases [2] | blocking of cysteine proteinases ([2]; listed as Allicin) | blocking of alcohol dehydrogenases [3] | killing of methicillin-resistant staphylococcus aureus [4] | killing of vancomycin-resistant enterococci [5] | storage without losing effectiveness / beneficial properties [1]
few hours | stable for months | 50 Mm | C=CCS[S+]([O-])CC=C (centres unmarked) [allicin] | less than an our; also recorded: about an hour | loses its beneficial properties within hours | blocking | Strongly Inhibits | blocking | killing | killing | 
 |  |  | C=CCS[S+]([O-])CC=C (centres unmarked) [pure semi-synthetic allicin, allicin] |  |  |  |  |  |  |  | stored for months without losing its effectiveness
